Results on 15 molecules are retold here after patent publication US11414429B2, “Compound or pharmaceutically acceptable salt thereof” (RIKEN, priority 2016, dated 2022).

Read-outs that look alike come from different tables or passages of the source.

The subject of assay [1] is human colorectal cancer cell line, COLO-320DM. Kind of assay: Cell proliferation inhibitory activity test (Celltiter-Glo Luminescent Cell Viability Assay). The following applies: COLO-320DM cells, 96 hours. The assay is classed as cell-based. The protocol: (Test Example 2) Cell Proliferation Inhibitory Activity Test
The cell proliferation inhibitory activity of the compound obtained in each of Examples against human colorectal cancer cell line, COLO-320DM was evaluated by Celltiter-Glo Luminescent Cell Viability Assay (Promega Corporation, G7573). The COLO-320 DM cells were cultured in a RPMI-1640 medium (Wako Pure Chemical Industries, Ltd., 189-02025) containing 10% fetal bovine serum and 2 mM of glutamine. The cultured cells were washed with PBS and then detached with trypsin/EDTA to prepare a cell solution containing 3×10^4 cells/mL.
Next, the cell solution was seeded in a 96 well microplate (Thermo/Nunc, 136101) in an amount of 70 μL/well and was cultured overnight under conditions at 37° C. with 5% CO2. On the next day, 10 μL/well of a solution in which the test target compound (DMSO solution) was diluted with the cell culture medium (a final DMSO concentration of 1%) was added and the reaction was allowed to proceed under conditions at 37° C. with 5% CO2 for 96 hours (a 1% DMSO solution was used as a control). Subsequently, 80 μL/well of Celltiter-Glo Luminescent Cell Viability Assay reagent (Promega Corporation, G7573) was added, followed by agitation for 2 minutes with a shaker under shielding with aluminum foil. Thereafter, the resultant solution was allowed to stand for reaction at room temperature for 10 minutes.
After that, the luminescent signal was measured with a luminometer (Biotech, Synergy). The cell proliferation inhibitory activity was evaluated by obtaining a percentage of a cell proliferation volume of each compound-added group with respect to a cell proliferation volume (100%) of a control group in which no test target component solution was added, and calculating a value of compound concentration (GI50) required to reduce the remaining cell volume to 50% of the remaining cell volume of the control. […] The results are shown in Tables 120 to 123 together with the results of the tankyrase inhibition activity test.
(In ATP-based viability assays light output follows the ATP content of the culture.)

In a further assay the target is T1, tankyrase 2 (TNKS 2) (Homo sapiens, UniProt Q9H2K2).
T1 construct: 613-1, 116aa; made in house; host or cells: cell-free protein synthesis system
T1 sequence (Q9H2K2 613-1166): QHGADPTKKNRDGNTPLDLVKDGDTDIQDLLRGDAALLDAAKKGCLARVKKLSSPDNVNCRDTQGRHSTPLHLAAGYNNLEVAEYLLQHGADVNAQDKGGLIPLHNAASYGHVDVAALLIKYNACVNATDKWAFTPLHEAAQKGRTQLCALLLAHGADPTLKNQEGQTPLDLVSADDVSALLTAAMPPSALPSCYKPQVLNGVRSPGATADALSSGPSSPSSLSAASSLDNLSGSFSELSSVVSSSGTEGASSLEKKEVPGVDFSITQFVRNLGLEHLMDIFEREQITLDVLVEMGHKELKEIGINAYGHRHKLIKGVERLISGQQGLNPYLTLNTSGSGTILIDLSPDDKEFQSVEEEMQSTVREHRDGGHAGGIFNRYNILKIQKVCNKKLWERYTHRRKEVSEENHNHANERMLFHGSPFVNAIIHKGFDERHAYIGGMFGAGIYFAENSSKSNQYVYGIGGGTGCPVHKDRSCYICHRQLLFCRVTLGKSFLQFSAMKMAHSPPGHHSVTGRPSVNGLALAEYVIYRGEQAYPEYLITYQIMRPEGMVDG
Kind of assay: Tankyrase inhibitory activity test (ELISA, self-polyADP ribosylation), tankyrase 2. In kind it is biochemical. The following applies: self-polyADP ribosylation. The protocol: (§1) (Test Example 1) Tankyrase Inhibitory Activity Test
(§2) For each of the compounds obtained in Examples (the test target compounds), the tankyrase inhibitory activity (an inhibitory activity against tankyrase 1 (TNKS 1) and an inhibitory activity against tankyrase 2 (TNKS 2)) was evaluated by measuring the enzymatic activity of tankyrase 1 and the enzymatic activity of tankyrase 2 by the ELISA technique using self-polyADP ribosylation as an index. First, Flag-tag fusion tankyrase 1 (1,024-1,327aa, SAM+PARP) and tankyrase 2 (613-1, 116aa, ANK5+SAM+PARP) were each synthesized by a cell-free protein synthesis system and diluted with a Tris buffer (50 mM Tris-HCl (pH 8.0), 150 mM NaCl, 10% glycerol). Then, 50 μL of the diluted tankyrase 1 or tankyrase 2 was added to a plate on which the anti-FLAGM 2 monoclonal antibody was immobilized (Anti-FLAG high sensitivity M2 coated plate) (SIGMA Corporation), and was allowed to stand at 4° C. overnight. Thereafter, the plate was washed four times with a PBS buffer containing 0.1% Triton X-100 (PBST buffer).
(§3) Subsequently, the test target compound diluted with an assay buffer (50 mM Tris-HCl (pH 8.0), 4 mM MgCl2, 0.2 mM DTT) (using DMSO as a control) was added to each well of the plate and was allowed to stand at room temperature for 10 minutes. Thereafter, a biotin-labeled NAD solution (225 μM NAD, 25 μM 6-Biotin-17-NAD (Trevigen Inc.)) was added as a donor substrate and mixed with the resultant test target compound, and the reaction was allowed to proceed at 30° C. for 45 minutes. Instead of the biotin-labeled NAD solution, distilled water was added to blank wells. After the reaction, the plate was washed four times with the PBST buffer. Thereafter, HRP (horseradish peroxidase)-labeled streptavidin (Trevigen Inc.) diluted 1,000-fold with the PBS buffer was added to each well, and the reaction was allowed to proceed at room temperature for 20 minutes. After the plate was washed four times with the PBST buffer, a chemiluminescent substrate solution TACS-Sapphire (Trevigen Inc.) was added to each well and the reaction was allowed to proceed at room temperature for 20 minutes. Then, the chemiluminescence intensity was measured using a chemiluminescence measuring apparatus.
(§4) The residual enzyme activity in the presence of the test target compound was determined in accordance with the following formula. Based on the residual enzyme activity at multiple concentrations of the test target compound, an enzyme inhibition activity was calculated as a 50% inhibitory concentration (IC50 value) using data analysis software named Origin (LightStone Corp.).
For orientation: An ELISA detects its analyte on a solid surface through an enzyme-linked reagent.

In another assay the target is T2, tankyrase 1 (TNKS 1) (Homo sapiens, UniProt O95271).
T2 construct: 1,024-1,327aa; made in house; host or cells: cell-free protein synthesis system
T2 sequence (O95271 1024-1327): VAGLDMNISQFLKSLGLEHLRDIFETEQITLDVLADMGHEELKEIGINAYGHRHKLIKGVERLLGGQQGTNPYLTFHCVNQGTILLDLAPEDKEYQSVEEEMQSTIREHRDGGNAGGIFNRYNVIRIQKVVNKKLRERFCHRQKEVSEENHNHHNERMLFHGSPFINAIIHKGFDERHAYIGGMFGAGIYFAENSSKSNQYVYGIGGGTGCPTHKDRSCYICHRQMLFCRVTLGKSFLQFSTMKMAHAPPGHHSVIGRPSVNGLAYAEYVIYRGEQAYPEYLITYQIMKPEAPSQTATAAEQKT
Kind of assay: Tankyrase inhibitory activity test (ELISA, self-polyADP ribosylation), tankyrase 1. The assay is classed as biochemical. The conditions noted are these: self-polyADP ribosylation. The protocol:
as §1, §2, §3, §4

[2] abbreviates: read-out: COLO-320 DM cell proliferation inhibitory activity (GI50 class).
The mark [3] stands for this setting: tankyrase 2, ELISA, read-out: TNKS2 inhibitory activity (IC50 class).
Where [4] appears, read: tankyrase 1, ELISA, read-out: TNKS1 inhibitory activity (IC50 class).
Where [5] appears, read: class symbols, read-out: COLO-320 DM (cell proliferation inhibitory activity, GI50 value).
[6] abbreviates: ELISA, class symbols, read-out: TNKS2 (inhibitory activity against tankyrase 2, IC50 value).
The mark [7] stands for this setting: ELISA, class symbols, read-out: TNKS1 (inhibitory activity against tankyrase 1, IC50 value).

The IC50 is the concentration needed to halve the response being measured. For `CN1CCCc2c1nc(N1CCC3(CC1)C(=O)N(C)c1cc(OCCN4CCS(=O)(=O)CC4)cc(Cl)c13)[nH]c2=O` [Example 378, 4-chloro-6-[2-(1,1-dioxi-dothio-morpholino)ethoxy]-1-methyl-1′-(8-methyl-4-oxo-3,4,5,6,7,8-hexahydropyrido [2,3-d]pyrimidin-2-yl)spiro [indoline-3,4′-piperidin]-2-one], in assay [1] (setting [2]), the GI50 lay in the range of 600 to 1000 nM. The IC50 on tankyrase 2 (TNKS 2) (setting [3]) and at tankyrase 1 (TNKS 1) (setting [4]) was less than 20 nM in each case.
In the case of `CN1CCCc2c1nc(N1CCC3(CC1)C(=O)N(C)c1cc(C(=O)O)cc(F)c13)[nH]c2=O` [Example 431, 4-fluoro-1-methyl-1′-(8-methyl-4-oxo-3,4,5,6,7,8-hexahydro-pyrido[2,3-d]primi-din-2-yl)-2-oxospiro[indoline-3,4′-piperidine]-6-carboxylic acid], the GI50 in assay [1] (setting [5]) is 600 to 1000 nM. For the same molecule, the IC50 on tankyrase 2 (TNKS 2) (setting [6]) and at tankyrase 1 (TNKS 1) (setting [7]) was less than 20 nM throughout.
Regarding `CN1CCCc2c1nc(N1CCC3(CC1)OC(=O)c1cc(N4CCN(CCO)CC4)cc(F)c13)[nH]c2=O` [Example 440, 4-fluoro-6-[4-(2-hydroxyethyl)piper-azin-1-yl]-1′-(4-hydroxy-8-methyl-6,7-dihydro-5H-pyrido[2,3-d]pyrimi-din-2-yl)spiro[2-benzofuran-3,4′-piperidine]-1-one], the GI50 in assay [1] (setting [5]) fell in the range of 100 to 600 nM. Also, the half-inhibitory concentration (IC50) on tankyrase 2 (TNKS 2) (setting [6]) and at tankyrase 1 (TNKS 1) (setting [7]) was less than 20 nM throughout.
On to `CN1CCCc2c1nc(N1CCC3(CC1)C(=O)N(C)c1c(C#N)ccc(Cl)c13)[nH]c2=O` [Example 327, 4-chloro-1-methyl-1′-(8-methyl-4-oxo-3,4,5,6,7,8-hexahydro-pyrido[2,3-d]-pyrimidin-2-yl)-2-oxo-spiro[indoline-3,4′-piperidine]-7-carbonitrile], for which the GI50 in assay [1] (setting [2]) lay within 100 to 600 nM. Also, the IC50 at tankyrase 2 (TNKS 2) (setting [3]) and at tankyrase 1 (TNKS 1) (setting [4]) was less than 20 nM throughout.
As for `COCCN1C(=O)C2(CCN(c3nc4c(c(=O)[nH]3)CCCN4C)CC2)c2c(F)cc(N3CCNCC3)cc21` [Example 416], the GI50 in assay [1] (setting [5]) is 100 to 600 nM. In addition, the IC50 at tankyrase 2 (TNKS 2) (setting [6]) and at tankyrase 1 (TNKS 1) (setting [7]) was less than 20 nM throughout.
For the molecule `COc1cc(F)c2c(c1)N(C)C(=O)C21CCN(c2nc3c(c(=O)[nH]2)CCCN3C)CC1` [Example 372, 4-fluoro-6-methoxy-1-methyl-1′-(8-methyl-4-oxo-3,4,5,6,7,8-hexahydropyrido [2,3-d]pyrimidin-2-yl) spiro[indoline-3,4'-piperidin]-2-one], the GI50 in assay [1] (setting [2]) fell in the range of 100 to 600 nM. The IC50 at tankyrase 2 (TNKS 2) (setting [3]) and on tankyrase 1 (TNKS 1) (setting [4]) was less than 20 nM throughout.
For `CN1CCCc2c1nc(N1CCC3(CC1)C(=O)N(C)c1cc(N4CCN(C(N)=O)CC4)cc(F)c13)[nH]c2=O` [Example 466, 4-[4-fluoro-1-methyl-1′-(8-methyl-4-oxo-3,4,5,6,7,8-hexahydropyrido[2,3-d]pyrimidin-2-yl)-2-oxospiro[indole-3,4′-piperidine]-6-yl]piperazine-1-carboxamide], the GI50 in assay [1] (setting [5]) was 600 to 1000 nM. In addition, the IC50 is less than 20 nM on tankyrase 2 (TNKS 2) (setting [6]) and 20 to 200 nM on tankyrase 1 (TNKS 1) (setting [7]).
For the molecule `COCCN1C(=O)C2(CCN(c3nc4c(c(=O)[nH]3)CCCN4C)CC2)c2c(F)cc(OCC(=O)O)cc21` [Example 409], the GI50 in assay [1] (setting [5]) was 600 to 1000 nM. Besides, the IC50 at tankyrase 2 (TNKS 2) (setting [6]) and at tankyrase 1 (TNKS 1) (setting [7]) was less than 20 nM throughout.
For `CN1CCCc2c1nc(N1CCC3(CC1)OC(=O)c1cc(N4CCN(C(C)(C)C)CC4)cc(F)c13)[nH]c2=O` [Example 434, 6-(4-tert-butylpipera-zin-1-yl)-4-fluoro-1′-(4-hydroxy-8-methyl-6,7-dihydro-5H-pyrido [2,3-d]pyrimidin-2-yl) spiro[2,3-benzofuran-3,4′-piperidine]-1-one], the GI50 in assay [1] (setting [5]) fell in the range of 600 to 1000 nM. Further, the half-maximal inhibitory concentration (IC50) at tankyrase 2 (TNKS 2) (setting [6]) and at tankyrase 1 (TNKS 1) (setting [7]) was less than 20 nM throughout.
Consider `CN1CCCc2c1nc(N1CCC3(CC1)C(=O)N(C)c1c(OCc4nnn[nH]4)ccc(Cl)c13)[nH]c2=O` [Example 415, 4-chloro-1′-(4-hydroxy-8-methyl-6,7-dihydro-5H-pyrido[2,3-b]py-rimidin-2-yl)-1-meth-yl-7-(2H-tetrazol-5-yl-methoxy)spiro[indole-3,4′-piperidin]-2-one], for which the GI50 in assay [1] (setting [5]) fell in the range of 600 to 1000 nM. Moreover, the IC50 at tankyrase 2 (TNKS 2) (setting [6]) and at tankyrase 1 (TNKS 1) (setting [7]) was less than 20 nM each time.
As for `CN1CCCc2c1nc(N1CCC3(CC1)CN(Cc1cccnc1)c1cc(F)cc(F)c13)[nH]c2=O` [Example 351, 2-[4,6-difluoro-1-(pyridin-3-ylmethyl)spiro [indoline-3,4′-piperi-dine]-1′-yl]-8-methyl-5,6,7,8-tetrahydro pyrido [2,3-d]pyrimidin-4(3H)-one], in assay [1] (setting [2]), the GI50 lay in the range of 100 to 600 nM. Besides, the IC50 on tankyrase 2 (TNKS 2) (setting [3]) was less than 20 nM; at tankyrase 1 (TNKS 1) (setting [4]), 20 to 200 nM.
Take `COc1cc(F)c2c(c1)N(CCO)C(=O)C21CCN(c2nc3c(c(=O)[nH]2)CCCN3C)CC1` [Example 373, 4-fluoro-1-(2-hydroxy-ethyl)-6-methoxy-1′-(8-methyl-4-oxo-3,4,5,6,7,8-hexahydropyrido [2,3-d]pyrimidin-2-yl) spiro[indoline-3,4′-piperidin]-2-one]: the GI50 in assay [1] (setting [2]) is less than 100 nM. The half-maximal inhibitory concentration (IC50) at tankyrase 2 (TNKS 2) (setting [3]) and on tankyrase 1 (TNKS 1) (setting [4]) was less than 20 nM in each case.
On to `COc1ccc(Cl)c2c1N(CC(C)(C)O)C(=O)C21CCN(c2nc3c(c(=O)[nH]2)CCCN3)CC1` [Example 448], for which the GI50 in assay [1] (setting [5]) was 100 to 600 nM. Besides, the 50% inhibitory concentration (IC50) on tankyrase 2 (TNKS 2) (setting [6]) and at tankyrase 1 (TNKS 1) (setting [7]) was less than 20 nM throughout.
Consider `CN1CCCc2c1nc(N1CCC3(CC1)C(=O)N(C)c1cc(OCS(N)(=O)=O)cc(F)c13)[nH]c2=O` [Example 454, 1-{[4-fluoro-1-meth-yl-1′-(8-methyl-4-oxo-3,4,5,6,7,8-hexahydropyrido [2,3-d]pyrimidin-2-yl)-2-oxospiro[indole-3,4′-piperidine]-6-yl]oxy}meth-anesulfonamide], for which the GI50 in assay [1] (setting [5]) was in the range of 100 to 600 nM. The IC50 at tankyrase 2 (TNKS 2) (setting [6]) and on tankyrase 1 (TNKS 1) (setting [7]) was less than 20 nM in each case.
Regarding `C[C@@H]1CN(c2cc(F)c3c(c2)N(C)C(=O)C32CCN(c3nc4c(c(=O)[nH]3)CCCN4C)CC2)C[C@H](C)N1` [Example 390, 6-(cis-3,5-dimethyl-piperazin-1-yl)-4-fluoro-1-methyl-1′-(8-methyl-4-oxo-3,4,5,6,7,8-hexahydropyrido [2,3-d]pyrimi-din-2-yl) spiro[indoline-3,4′-piperidin]-2(1H)-one], the GI50 in assay [1] (setting [5]) was in the range of 100 to 600 nM. Further, the IC50 on tankyrase 2 (TNKS 2) (setting [6]) and on tankyrase 1 (TNKS 1) (setting [7]) was less than 20 nM in each case.
